In ChEMBL document CHEMBL1154460, “Tryptophan-containing dipeptide derivatives as potent PPARgamma antagonists: design, synthesis, biological evaluation, and molecular modeling” (Eur J Med Chem, 2008) one finds IC50 and inhibition data, which are given here for 40 molecules.

The IC50 is the concentration needed to halve the response being measured. The term inhibition denotes the change of the read-out against control, counted positive when it falls.

Each structure is given as a SMILES string. Calls of active or inactive are those of the source. The calls are words filed in the database; no cut-off is given here. Non-standard residues stand in square brackets, D forms with d. Residues, ends and D or L forms follow the SMILES beside them. *: point of attachment. 2Nal = N[C@@H](Cc1ccc2ccccc2c1)C(=O)O; Aad = N[C@@H](CCCC(=O)O)C(=O)O; OBn = c1ccc(CO*)cc1

Assay [1] addresses T1, Peroxisome proliferator-activated receptor gamma (Homo sapiens, UniProt P37231).
T1 sequence (P37231 whole entry): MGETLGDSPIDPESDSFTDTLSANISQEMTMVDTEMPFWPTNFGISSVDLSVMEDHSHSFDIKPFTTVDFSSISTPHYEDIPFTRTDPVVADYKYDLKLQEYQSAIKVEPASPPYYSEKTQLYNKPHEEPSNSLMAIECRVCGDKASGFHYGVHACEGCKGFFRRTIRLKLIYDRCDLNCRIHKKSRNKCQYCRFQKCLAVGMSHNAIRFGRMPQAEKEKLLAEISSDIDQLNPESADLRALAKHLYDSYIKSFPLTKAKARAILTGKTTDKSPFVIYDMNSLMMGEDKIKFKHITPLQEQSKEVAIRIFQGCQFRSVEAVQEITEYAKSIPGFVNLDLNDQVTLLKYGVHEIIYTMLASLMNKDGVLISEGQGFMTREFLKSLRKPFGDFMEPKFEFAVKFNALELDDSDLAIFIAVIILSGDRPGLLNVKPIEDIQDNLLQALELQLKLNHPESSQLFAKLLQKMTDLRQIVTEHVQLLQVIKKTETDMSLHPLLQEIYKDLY
As to the kind of experiment: Antagonist activity at human PPARgamma receptor expressed in Saccharomyces cerevisiae AH109 co-transfected with mouse CBP assessed as inhibition of rosiglitazone-induced LBD-CBP interaction by alpha-galactosidase based yeast two hybrid assay. It is filed as functional.

The target of assay [2] is T2, Peroxisome proliferator-activated receptor gamma (Homo sapiens) (UniProt P37231).
T2 sequence (whole entry): T1 sequence (P37231 whole entry)
As to the kind of experiment: Antagonist activity at human PPARgamma receptor expressed in Saccharomyces cerevisiae AH109 co-transfected with mouse CBP assessed as inhibition of rosiglitazone-induced LBD-CBP interaction at 10 uM by alpha-galactosidase based yeast two hybrid assay. It counts as functional.

As for `CC(C)(c1ccc(OCC2CO2)cc1)c1ccc(OCC2CO2)cc1` (configuration not stated), the IC50 in assay [1] turned out to be 100 µM.
For `O=C(Nc1ccccc1)c1cc([N+](=O)[O-])ccc1Cl`, in assay [1], the IC50 was 3.3 µM.
As for `N[C@@H](Cc1c[nH]c2ccccc12)C(=O)N[C@@H](CCC(=O)O)C(=O)O`, the inhibition in assay [2] was determined as 43.2%. Also, in assay [1], the concentration for half-maximal inhibition (IC50) stood at 8.67 µM.
As for `O=C(O)C(Oc1cccc(C(F)(F)F)c1)c1ccc(Cl)cc1` (configuration not stated), the IC50 in assay [1] was 0.22 µM.
Consider `C=CCn1cc([N+](=O)[O-])s/c1=N\C(=O)C(C)(C)C`, for which the IC50 in assay [1] came out at 0.82 µM.
Turning to `N[C@@H](Cc1c[nH]c2ccccc12)C(=O)N[C@@H](CC(=O)O)C(=O)O`, the inhibition in assay [2] came out at 57.8%. The IC50 in assay [1] was found to be 5.2 µM.
For the molecule `COC(=O)CCC[C@H](NC(=O)[C@H](N)Cc1ccccc1)C(=O)OC`, the inhibition result in assay [2] was “inactive”.
Take `COC(=O)CC[C@@H](NC(=O)[C@@H](N)Cc1c[nH]c2ccccc12)C(=O)OC`: the inhibition entry in assay [2] is “inactive”.
Take `COC(=O)CC[C@H](NC(=O)[C@@H](N)Cc1c[nH]c2ccccc12)C(=O)OC`: in assay [2], the inhibition was 4.05%.
`COC(=O)CC[C@H](NC(=O)[C@@H](N)Cc1ccccc1)C(=O)OC`: the inhibition in assay [2] was 3.99%.
For the molecule `COC(=O)CC[C@H](NC(=O)[C@H](N)Cc1ccccc1)C(=O)OC`, the inhibition entry in assay [2] was “inactive”.
Turning to `COC(=O)C[C@H](NC(=O)[C@H](N)Cc1ccccc1)C(=O)OC`, the inhibition result in assay [2] is “inactive”.
Regarding `COC(=O)[C@H](C)NC(=O)[C@@H](N)Cc1ccccc1`, the inhibition entry in assay [2] was “inactive”.
In the case of `COC(=O)[C@H](CC(C)C)NC(=O)[C@H](N)Cc1ccccc1`, the inhibition entry in assay [2] is “inactive”.
Consider `N[C@@H](Cc1c[nH]c2ccccc12)C(=O)N[C@H](CC(=O)O)C(=O)O`, for which, in assay [2], the inhibition amounted to 15.5%.
`N[C@@H](Cc1c[nH]c2ccccc12)C(=O)N[C@H](CCC(=O)O)C(=O)O`: the inhibition in assay [2] came out at 0.4%.
As to `N[C@@H](Cc1c[nH]c2ccccc12)C(=O)N[C@H](CCC(=O)OCc1ccccc1)C(=O)OCc1ccccc1`, in assay [2], the inhibition result was “inactive”.
Take `N[C@H](Cc1c[nH]c2ccccc12)C(=O)N[C@@H](CC(=O)O)C(=O)O`: the inhibition in assay [2] is 0.68%.
With `N[C@H](Cc1c[nH]c2ccccc12)C(=O)N[C@H](CC(=O)O)C(=O)O`, in assay [2], the inhibition turned out to be 0.42%.
Consider `N[C@@H](Cc1ccccc1)C(=O)N[C@@H](CC(=O)OCc1ccccc1)C(=O)OCc1ccccc1` (H-Phe-Asp(OBn)-OBn), for which, in assay [2], the inhibition result is “inactive”.
On the same count and under the same terms, to `N[C@@H](Cc1ccccc1)C(=O)N[C@@H](CC(=O)O)C(=O)O` (H-Phe-Asp-OH) belongs 1.12%; to `N[C@@H](Cc1ccccc1)C(=O)N[C@@H](CCC(=O)OCc1ccccc1)C(=O)OCc1ccccc1` (H-Phe-Glu(OBn)-OBn), “inactive”; to `N[C@@H](Cc1ccccc1)C(=O)N[C@@H](CCC(=O)O)C(=O)O` (H-Phe-Glu-OH), 4.3%.
`N=C(N)NCCC[C@H](NC(=O)[C@@H](N)Cc1c[nH]c2ccccc12)C(=O)O` (H-Trp-Arg-OH): the inhibition in assay [2] is 45%. In addition, the IC50 in assay [1] came to 15.4 µM.
For `NC(=O)C[C@H](NC(=O)[C@@H](N)Cc1c[nH]c2ccccc12)C(=O)O` (H-Trp-Asn-OH), in that order: 36.3% and 18.4 µM.
For the molecule `N[C@@H](Cc1c[nH]c2ccccc12)C(=O)N[C@@H](CC(=O)OCc1ccccc1)C(=O)OCc1ccccc1` (H-Trp-Asp(OBn)-OBn), in assay [2], the inhibition was 5.33%.
For `COC(=O)C[C@H](NC(=O)[C@@H](N)Cc1c[nH]c2ccccc12)C(=O)OC` (H-Trp-Asp(OMe)-OMe), in assay [2], the inhibition result is “inactive”.
As to `NC(=O)CC[C@H](NC(=O)[C@@H](N)Cc1c[nH]c2ccccc12)C(=O)O` (H-Trp-Gln-OH), in assay [2], the inhibition was found to be 38.6%. Further, the 50% inhibitory concentration (IC50) in assay [1] worked out at 18.7 µM.
Consider `CC(C)C[C@H](NC(=O)[C@@H](N)Cc1c[nH]c2ccccc12)C(=O)OCc1ccccc1` (H-Trp-Leu-OBn), for which, in assay [2], the inhibition entry was “inactive”.
For `CC(C)C[C@H](NC(=O)[C@@H](N)Cc1c[nH]c2ccccc12)C(=O)O` (H-Trp-Leu-OH), the inhibition in assay [2] stood at 58.2%. The IC50 in assay [1] is 25.8 µM.
For the molecule `COC(=O)[C@H](CC(C)C)NC(=O)[C@@H](N)Cc1c[nH]c2ccccc12` (H-Trp-Leu-OMe), the inhibition in assay [2] amounted to 5.29%.
Same read-out and setting: as for `COC(=O)CCC[C@H](NC(=O)[C@@H](N)Cc1c[nH]c2ccccc12)C(=O)OC` (H-Trp-[Aad](OMe)-OMe), the figure is 8.74%.
Regarding `N[C@@H](Cc1c[nH]c2ccccc12)C(=O)N[C@@H](CCCC(=O)O)C(=O)O` (H-Trp-[Aad]-OH), the inhibition in assay [2] worked out at 70%. The IC50 in assay [1] was determined as 15.1 µM.
As for `COC(=O)CC[C@H](NC(=O)[C@@H](N)Cc1ccc(OC)cc1)C(=O)OC` (H-Tyr(Me)-Glu(OMe)-OMe), in assay [2], the inhibition stood at 5.26%.
On to `N[C@@H](Cc1ccc2ccccc2c1)C(=O)N[C@@H](CCC(=O)OCc1ccccc1)C(=O)OCc1ccccc1` (H-[2Nal]-Glu(OBn)-OBn), for which the inhibition in assay [2] stood at 27.7%.
Turning to `COC(=O)CC[C@H](NC(=O)[C@@H](N)Cc1ccc2ccccc2c1)C(=O)OC` (H-[2Nal]-Glu(OMe)-OMe), in assay [2], the inhibition came out at 14.7%.
On to `N[C@@H](Cc1ccc2ccccc2c1)C(=O)N[C@@H](CCC(=O)O)C(=O)O` (H-[2Nal]-Glu-OH), for which the inhibition in assay [2] came out at 2.1%.
As to `COC(=O)[C@H](CC(C)C)NC(=O)[C@@H](N)Cc1ccc2ccccc2c1` (H-[2Nal]-Leu-OMe), the inhibition in assay [2] was found to be 4.34%.
As to `CC(=O)NCCOC(=O)C(Oc1cccc(C(F)(F)F)c1)c1ccc(Cl)cc1` (configuration not stated) [HALOFENATE], the IC50 in assay [1] was 40 µM.
In the case of `COP(=O)(OC)OC(c1ccc(Cl)cc1)P(=O)(OC)OC` (configuration not stated) [MIFOBATE], the IC50 in assay [1] stood at 140 µM.
